Source: patent US20120115845A1, “THERAPEUTIC AGENTS” (priority 2007, published 2012)

What was measured:
human GHS receptor [1] = target: T1, human GHS receptor (Homo sapiens, UniProt Q92847); assay: Ghrelin IP1 agonist assay (IP1 HTRF); format: cell-based; design: expressed in transfected cells; host or cells: HEK293s; conditions: for Emax: 2 h, agonist effect as % maximal effect of GHRP-6 (5 μM), read-out: h IP1 ag %; for EC50: HEK293s cells stably expressing human GHS receptor, 2 hours at 37° C., read-out: h IP1 ag EC50
Outline: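 Cells: HEK293s stably expressing human GHS receptor, in stimulation buffer containing 0.02% fatty acid free BSA.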

human GHS receptor [2] = target: T1, human GHS receptor; assay: h bind IC50 (binding assay, Table 1); conditions: human receptor; Table 1

T1 sequence (Q92847 whole entry): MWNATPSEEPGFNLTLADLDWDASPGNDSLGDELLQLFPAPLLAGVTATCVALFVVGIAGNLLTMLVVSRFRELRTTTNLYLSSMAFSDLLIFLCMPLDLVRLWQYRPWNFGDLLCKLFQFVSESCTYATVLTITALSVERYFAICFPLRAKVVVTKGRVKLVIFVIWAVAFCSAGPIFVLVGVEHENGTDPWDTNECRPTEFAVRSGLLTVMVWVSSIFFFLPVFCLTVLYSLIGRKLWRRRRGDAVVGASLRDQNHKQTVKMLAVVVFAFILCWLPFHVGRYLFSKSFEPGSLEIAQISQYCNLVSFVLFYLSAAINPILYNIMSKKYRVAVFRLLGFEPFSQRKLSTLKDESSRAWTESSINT

Emax (human GHS receptor [1]) [%]	EC50 (human GHS receptor [1]) [nM]	IC50 (human GHS receptor [2]) [nM]	Compound
1.52	9230	5.78	Cc1cc(Cl)c(C(=O)NC(=O)Nc2nc3ccc(S(=O)(=O)C4CCN(C)CC4)cc3s2)cc1-n1cccn1 [Example 260, 2-chloro-4-methyl-N-(6-(1-methylpiperidin-4-ylsulfonyl)benzo [d]thiazol-2-ylcarbamoyl)-5-(1H-pyrazol-1-yl)benzamide]
13.1	≥ 20000	846	CN1CC(Oc2ccc(Cl)c(C(=O)NC(=O)Nc3nc4ccc(S(C)(=O)=O)cc4s3)c2)C1 [Example 257, 2-chloro-5-(1-methylazetidin-3-yloxy)-N-(6-(methylsulfonyl)benzo[d]thiazol-2-ylcarbamoyl) benzamide]
0	≥ 25000	12.9	CS(=O)(=O)c1ccc2nc(NC(=O)NC(=O)c3cc(C4CC4)ccc3Cl)sc2c1 [Example 49, 2-Chloro-5-cyclopropyl-N-(6-(methylsulfonyl)benzothiazol-2-ylcarbamoyl)benzamide]
24.2	57.8	116	CS(=O)(=O)c1ccc2nc(NC(=O)NC(=O)c3ccccc3Cl)sc2c1 [Example 102, 2-Chloro-N-[(6-methylsulfonylbenzothiazol-2-yl)carbamoyl]benzamide]
6	≥ 20000	4940	CN(C)Cc1ccc(Cl)c(C(=O)NC(=O)Nc2nc3ccc(S(C)(=O)=O)cc3s2)c1 [Example 266, 2-chloro-5-((dimethylamino)methyl)-N-(6-(methylsulfonyl)benzo[d]thiazol-2-ylcarbamoyl) benzamide]
26.1	623	428	CN(CCS(=O)(=O)c1ccc2nc(NC(=O)NC(=O)c3ccccc3Cl)sc2c1)CC1CCCO1 (stereo not drawn) [Example 26, 2-Chloro-N-[[6-[2-(methyl-(oxolan-2-ylmethyl)amino)ethylsulfonyl]benzothiazol-2-yl]carbamoyl]benzamide]
31.2	54.5	120	COc1ccc(C(=O)NC(=O)Nc2nc3ccc(S(C)(=O)=O)cc3s2)c(-c2ccc(F)cc2)c1 [Example 123, 2-(4-Fluorophenyl)-4-methoxy-N-[(6-methylsulfonylbenzothiazol-2-yl)carbamoyl]benzamide]
0	≥ 20000	2.08	CC(C)NCC(C)(C)S(=O)(=O)c1ccc2nc(NC(=O)NC(=O)c3cc(N4CCOCC4)ccc3Cl)sc2c1 [Example 246, 2-chloro-N-(6-(1-(isopropylamino)-2-methylpropan-2-ylsulfonyl)benzo[d]thiazol-2-ylcarbamoyl)-5-morpholino-benzamide]
30.1	22.4	64.1	O=C(NC(=O)c1ccccc1Cl)Nc1nc2ccc(S(=O)(=O)C3CN(CC4CC4)C3)cc2s1 [Example 175, 2-Chloro-N-[[6-[1-(cyclopropylmethyl)azetidin-3-yl]sulfonylbenzothiazol-2-yl]carbamoyl]benzamide]
52.1	12.4	32.6	NC1CC(S(=O)(=O)c2ccc3nc(NC(=O)NC(=O)c4ccccc4Cl)sc3c2)C1 (stereo not drawn) [Example 214, N-[[6-(3-Aminocyclobutyl)sulfonylbenzothiazol-2-yl]carbamoyl]-2-chloro-benzamide]
5.84	4970	7600	CS(=O)(=O)c1ccc2nc(NC(=O)NC(=O)c3cc(OC4CNC4)ccc3Cl)sc2c1 [Example 253, 5-(azetidin-3-yloxy)-2-chloro-N-(6-(methylsulfonyl)benzo[d]thiazol-2-ylcarbamoyl) benzamide]
0.946	≥ 25000	21.4	CS(=O)(=O)c1ccc2nc(NC(=O)NC(=O)c3cc(-c4ccccn4)ccc3Cl)sc2c1 [Example 45, 2-Chloro-5-(pyridin-2-yl)-N-(6-(methylsulfonyl)benzothiazol-2-ylcarbamoyl)benzamide]
7.67	9.34	14.3	CC(C)(C)OC(=O)N1CCC(Oc2ccc(Cl)c(C(=O)NC(=O)Nc3nc4ccc(S(C)(=O)=O)cc4s3)c2)CC1 [Example 243, tert-butyl 4-(4-chloro-3-(6-(methylsulfonyl)benzo[d]thiazol-2-ylcarbamoyl-carbamoyl)phenoxy) piperidine-1-carboxylate]
15.8	91.7	392	CS(=O)(=O)c1ccc2nc(NC(=O)NC(=O)c3cccc(F)c3Cl)sc2c1 [Example 110, 2-Chloro-3-fluoro-N-[(6-methylsulfonylbenzothiazol-2-yl)carbamoyl]benzamide]
3.72	≥ 20000	4090	CN(C)C1CCN(c2ccc(Cl)c(C(=O)NC(=O)Nc3nc4ccc(S(C)(=O)=O)cc4s3)c2)CC1 [Example 236, 2-chloro-5-(4-(dimethylamino)piperidin-1-yl)-N-(6-(methylsulfonyl)benzo[d]thiazo1-2-ylcarbamoyl) benzamide]
47.6	166	321	O=C(NC(=O)c1ccccc1Cl)Nc1nc2ccc(S(=O)(=O)CCNCCO)cc2s1 [Example 14, 2-Chloro-N-[[6-[2-(2-hydroxyethylamino)ethylsulfonyl]benzothiazol-2-yl]carbamoyl]benzamide]
11.3	7320	965	CN(C)C1CCCN(c2ccc(Cl)c(C(=O)NC(=O)Nc3nc4ccc(S(C)(=O)=O)cc4s3)c2)C1 (stereo not drawn) [Example 268, 2-Chloro-5-(3-dimethylamino-1-piperidyl)-N-[(6-methylsulfonyl-1,3-benzothiazol-2-yl)carbamoyl]benzamide]
0.5	389	141	CS(=O)(=O)c1ccc2nc(NC(=O)NC(=O)c3cc([N+](=O)[O-])ccc3Cl)sc2c1 [Example 70, 2-Chloro-N-(6-(methylsulfonyl)benzothiazol-2-ylcarbamoyl)-5-nitrobenzamide]
64.5	29.3	17.8	O=C(NC(=O)c1ccccc1Cl)Nc1nc2ccc(S(=O)(=O)CC3CCNCC3)cc2s1 [Example 219, 2-Chloro-N-[[6-(4-piperidylmethylsulfonyl)benzothiazol-2-yl]carbamoyl]benzamide]
18.1	7.24	0.3	CN1CCN(CCCS(=O)(=O)c2ccc3nc(NC(=O)NC(=O)c4cc(C5CC5)ccc4Cl)sc3c2)CC1 [Example 94, 2-Chloro-5-cyclopropyl-N-(6-(3-(4-methylpiperazin-1-yl)propylsulfonyl)benzothiazol-2-ylcarbamoyl)benzamide]
20.4	280	274	O=C(NC(=O)c1ccccc1Cl)Nc1nc2ccc(S(=O)(=O)Cc3ncc[nH]3)cc2s1 [Example 189, 2-Chloro-N-[[6-(1H-imidazol-2-ylmethylsulfonyl)benzothiazol-2-yl]carbamoyl]benzamide]
24.3	139	87.8	CC(C)NS(=O)(=O)c1ccc2nc(NC(=O)NC(=O)c3ccccc3Cl)sc2c1 [Example 224, 2-chloro-N-[[6-(isopropylsulfamoyl)-1,3-benzothiazol-2-yl]carbamoyl]benzamide]
19.3	27.6	306	CS(=O)(=O)c1ccc2nc(NC(=O)NC(=O)c3ccc(F)cc3Cl)sc2c1 [Example 107, 2-Chloro-4-fluoro-N-[(6-methylsulfonylbenzothiazol-2-yl)carbamoyl]benzamide]
0.911	≥ 25000	1.7	O=C(NC(=O)c1cc(-n2cccc2)ccc1Cl)Nc1nc2ccc(S(=O)(=O)[C@H]3CCNC3)cc2s1 [Example 77, 2-Chloro-N-[[6-[(3S)-pyrrolidin-3-yl]sulfonylbenzothiazol-2-yl]carbamoyl]-5-pyrrol-1-yl-benzamide]
5.93	67.3	127	CS(=O)(=O)c1ccc2nc(NC(=O)NC(=O)c3ccc([N+](=O)[O-])cc3Cl)sc2c1 [Example 180, 2-Chloro-N-[(6-methylsulfonylbenzothiazol-2-yl)carbamoyl]-4-nitro-benzamide]
14.1	335	1270	COc1ccc(C(=O)NC(=O)Nc2nc3ccc(S(C)(=O)=O)cc3s2)c(Cl)c1OC [Example 111, 2-Chloro-3,4-dimethoxy-N-[(6-methylsulfonylbenzothiazol-2-yl)carbamoyl]benzamide]
31.1	668	288	CCSc1ccccc1C(=O)NC(=O)Nc1nc2ccc(S(C)(=O)=O)cc2s1 [Example 130, 2-Ethylsulfanyl-N-[(6-methylsulfonylbenzothiazol-2-yl)carbamoyl]benzamide]
63.9	13.3	218	CS(=O)(=O)c1ccc2nc(NC(=O)NC(=O)c3ccccc3-n3cccc3)sc2c1 [Example 134, N-[(6-Methylsulfonylbenzothiazol-2-yl)carbamoyl]-2-pyrrol-1-yl-benzamide]
0	> 25000	0.7	Cc1ccnn1-c1ccc(Cl)c(C(=O)NC(=O)Nc2nc3ccc(S(=O)(=O)CCCN4CCN(C)CC4)cc3s2)c1 [Example 90, 2-Chloro-5-(5-methyl-1H-pyrazol-1-yl)-N-(6-(3-(4-methylpiperazin-1-yl)propylsulfonyl)benzothiazol-2-ylcarbamoyl)benzamide]

Compound	Emax (human GHS receptor [1]) [%]	EC50 (human GHS receptor [1]) [nM]	IC50 (human GHS receptor [2]) [nM]
CC1CCCCN1CCS(=O)(=O)c1ccc2nc(NC(=O)NC(=O)c3ccccc3Cl)sc2c1 (stereo not drawn) [Example 27, 2-Chloro-N-[[6-[2-(2-methyl-1-piperidyl)ethylsulfonyl]benzothiazol-2-yl]carbamoyl]benzamide]	46.7	23.1	115
